“Also recorded” adds a separate entry of the source.
Tests used:
T cell clone BDC-10.1 [1] = settings: Yoshida et al 2002; cited from earlier work
T cell clone BDC-5.10.3 = assay: IFNγ production by T cell clone in antigen assay (ELISA); format: cell-based, NOD mouse; settings: peptide or preparation as antigen
Excerpt: (§1) The T cell clones are maintained in culture by periodic re-stimulation with irradiated NOD splenocytes and islet cells or β-membrane. To assay for antigen, resting responder T cells (i.e., for example, the cells at the end of the two-week restimulation period) are co-cultured for 24 hr with elicited peritoneal macrophages (PEC) as APC and either a test sample or control antigen. Control antigen will be in the form of islet cells or the whole-cell membrane fraction (i.e., for example, a β-membrane fraction). As described above, unlysed β-membrane is stored in aliquots at −80° C. for this purpose. Negative controls include responder cells alone and responders plus APC.
(§2) At the end of the culture period, supernatants are collected from the cultures and IFNγ production is measured by ELISA. Wells positive for IFNγ are indicative of T cells responding to antigen; the amount of cytokine produced is calculated from a standard curve and is directly proportional to the amount of antigen present.
(§3) Antigenicity of islet cells, cellular and biochemical fractions, peptides, or insect cells expressing IA^g7-peptide constructs, was assessed through responses of T cell clones or hybridomas made by fusing T cell clones to the TCR^− version of T cell lymphoma, BW5147. White et al., “Two better cell lines for making hybridomas expressing specific T cell receptors” J Immunol 143:1822-1825 (1989). T cell clone cultures typically contained 2×10^4 responder T cells, 2.5×10^4 NOD peritoneal exudate cells (PEC) as APC, and antigen (SEC/IEX fractions, peptides, islet cells); all assays were performed with β-Mem as a positive control. IFNγ was measured by ELISA of culture supernatants. For cultures with T cell hybridomas, antigen/MHC activation was assessed by IL-2 production measured by a bioassay using the HT-2 T cell line. Walker et al., “Antigenspecific. I region-restricted interactions in vitro between tumor cell lines and T cell hybridomas” J Immunol 128:2164-2169 (1982). Synthetic peptides were either produced in the Molecular Resource Center at National Jewish Health or obtained from CHI Scientific, Maynard, Mass.

T cell clone BDC-10.1 [2] = assay: as above; format: cell-based, NOD mouse; settings: peptide or preparation as antigen
Excerpt: as §1, §2, §3

T cell clone BDC-2.5 [3] = assay: as above; format: cell-based, NOD mouse; settings: peptide or preparation as antigen
Excerpt: as §1, §2, §3

soluble IA^g7 = assay: Peptide binding to IA^g7: competition with biotinylated HEL peptide; design: species or system NOD mouse; settings: competition with biotinylated pHEL 11 μM, pH 5.6, overnight
Excerpt: FIG. 15B: A series of ChgA peptides tested for their ability to compete with a biotinylated HEL peptide for binding to soluble IA^g7. pS3-positive control peptide. IE^k moth cytochrome c-negative control peptide. N=2. Y axis: Percent of IA^g7-bound biotinylated HEL peptide as compared to IE^k. X axis: Log concentration of inhibitor peptide.
In order to confirm the unique binding register of the WE14 peptide, a series of peptides comprising N-terminal extensions and/or C-terminal deletions of WE14 were evaluated for their ability to stimulate the BDC-2.5 T cell clone (FIG. 6a) or to bind to IA^g7. See, FIG. 15A. […] See, FIG. 15B. Further, a pS3 mimotope was used as the positive control peptide and an irrelevant peptide from moth cytochrome c, pMCC, was the negative control peptide. The data were analyzed to determine the stimulatory or binding capacity of the peptides relative to WE14. See, FIG. 15C.
Soluble IA^g7 with covalently attached pHEL was treated with thrombin to cleave the linker attaching the peptide to the IA^g7 β chain. Kozono et al., “Production of soluble MHC class II proteins with covalently bound single peptides” Nature 369:151-154 (1994). Samples (0.5 μg) were incubated with a soluble biotinylated version of pHEL, Biotin-GGGMKRHGLDNYRGYSL (SEQ ID NO: 56) (11 μM), either alone or in the presence of various concentrations of potential competitors peptides, in 15 μL of pH 5.6 buffer overnight at room temperature. The sample was diluted to 100 μL of PBS in a well of a 96-well ELISA plate coated with an anti-IA^g7 monoclonal antibody, OX-6 (BD Pharmaceuticals). The captured IA^g7 was washed several times with PBS and the bound bio-pHEL detected with alkaline phosphatase coupled Extravadin (Sigma) and […].

[4] = target: WE14 peptide (…), natural cleavage product of chromogranin A (mouse); assay: cell-based or functional assay
T cell clone PD-12.4.4 = assay: IFNγ production by insulin-reactive control T cell clone (ELISA); format: cell-based, NOD mouse; settings: negative control clone
Excerpt: as §1, §2
Antigenicity of islet cells, cellular and biochemical fractions, peptides, or insect cells expressing IA^g7-peptide constructs, was assessed through responses of T cell clones or hybridomas made by fusing T cell clones to the TCR^− version of T cell lymphoma, BW5147. […] IFNγ was measured by ELISA of culture supernatants. […]

BDC-2.5 T cell hybridoma = assay: IL-2 production by T cell hybridoma stimulated with ICAM/B7 insect cells displaying IA^g7-peptide; format: cell-based, mouse; settings: covalent IA^g7-peptide complex on B7/ICAM insect cells; 24 hrs
Method: (§4) FIG. 13C: Three BDC T cell hybridomas stimulated in culture either with: i) immobilized H597 anti-TCR Cβ Mab; ii) ICAM/B7 expressing SF9 cells infected with virus encoding IA^g7 with a HEL peptide; or ii) ICAM/B7 expressing SF9 cells infected with virus encoding IA^g7 with pS3. IL-2 production was assayed after 24 hrs.
(§5) T cell hybridomas bearing TCR from either the BCD-2.5, BDC-10.1 or BDC-5.10.3 T cell clones were tested for their ability to recognize the covalent IA^g7-p53 complex using B7/ICAM-expressing insect cells as artificial APCs. See, FIG. 13C; Crawford et al., “Mimotopes for alloreactive and conventional T cells in a peptide-MHC display library” PloS Biol 2:E90 (2004); and Crawford et al., “Use of baculovirus MHC/peptide display libraries to characterize T-cell receptor ligands” Immunol Rev 210: 156-170 (2006).
as §3

[5] = test system: BDC-5.10.3 T cell hybridoma; assay: as above; format: cell-based, mouse; settings: covalent IA^g7-peptide complex on B7/ICAM insect cells; 24 hrs
Method: as §4, §5, §3

[6] = test system: BDC-10.1 T cell hybridoma; assay: as above; format: cell-based, mouse; settings: covalent IA^g7-peptide complex on B7/ICAM insect cells; 24 hrs
Method: as §4, §5, §3

BDC-2.5 TCR = assay: Binding of fluorescent multimeric soluble BDC-2.5 TCR to IA^g7-peptide on insect cells (flow cytometry); design: species or system mouse; settings: oligomerized
Excerpt: FIG. 13B: Use of a fluorescent, oligomerized, soluble BDC-2.5 TCR to enrich from the library a virus encoding an IA^g7-mimotope (i.e., for example, pS3) that forms a strong ligand with a BDC-2.5 TCR.
The amino acids at p1, p2, p3, p5, p7 and p8 were fully randomized to all 20 amino acids. See, FIG. 13A. Insect cells were infected with the library at a multiplicity of infection of <1 such that most infected cells expressed a single member of the library. The few infected cells expressing an IA^g7-peptide combination capable of binding a fluorescent, soluble, multimeric version of BDC-2.5 TCR were isolated using flow cytometry. See, FIG. 13B, panel 1). These cells were used to create a new enriched viral stock. […]
The PCR DNA fragment encoding the library was cloned directly into baculovirus DNA already encoding the IA^g7 genes, attached via a linker to the N-terminus of the β chain. […] Insect cells infected with the library at a multiplicity of infection of <1 were analyzed by flow cytometry for cells that expressed IA^g7 (OX-6 Mab, BD-Pharmingen) and also bound a multivalent TCR reagent consisting of the soluble BDC-2.5 TCR captured by a biotinylated anti-Cα Mab, ADO-304, bound to Alexafluor-647 labeled streptavidin (Molecular Probes). […] The peptide sequence encoded in the positive clones was determined.

T cell clone BDC-2.5 [7] = settings: Yoshida et al 2002; cited from earlier work

For “HIPIWARMD [peptide mimotope of Yoshida et al 2002]”, the “Mimotope activation of BDC-10.1” value (T cell clone BDC-10.1 [1]) is listed as “activate”.
For “EDKRWSRMD [ChgA aa354-362; ED9 = WD5 extended with EDKR]”, the “Stimulation of T cell clone BDC-5.10.3 (IFNγ response), result in words” value (T cell clone BDC-5.10.3) was “did not stimulate”, the “Stimulation of T cell clone BDC-10.1 (IFNγ response), result in words” value (T cell clone BDC-10.1 [2]) was “did not stimulate” and the “Stimulation of T cell clone BDC-2.5 (IFNγ response), result in words” value (T cell clone BDC-2.5 [3]) was “did not stimulate”. The “Stimulation of T cell clone BDC-2.5 (IFNγ response), result in words” value (T cell clone BDC-2.5 [3]; listed as ED9) was “failed to stimulate” and the “IA^g7 binding, result in words” value (soluble IA^g7) was “did not bind”.
“TCR of the T cell clone BDC-10.1 (on the T cell clone or on a hybridoma bearing this TCR)” showed a potency in activating the BDC clones, relative to the pS3 mimotope (fold less potent than pS3) [4] of 1000.
For “RLGLWVRME [mimotope from baculovirus IA^g7-peptide library]”, the “Response of insulin-reactive T cell clone PD-12.4.4 (IFNγ), result in words” value (T cell clone PD-12.4.4) was “not”, the “Stimulation of T cell clone BDC-5.10.3 (IFNγ response), result in words” value (T cell clone BDC-5.10.3) was “strongly stimulated” and the “Stimulation of T cell clone BDC-5.10.3 (IFNγ response), result in words” value (T cell clone BDC-5.10.3; listed as pS3) was “maximally”. The “Stimulation of T cell clone BDC-10.1 (IFNγ response), result in words” value (T cell clone BDC-10.1 [2]) was “strongly stimulated”, the “Stimulation of T cell clone BDC-10.1 (IFNγ response), result in words” value (T cell clone BDC-10.1 [2]; listed as pS3) was “maximally” and the “Stimulation of T cell clone BDC-2.5 (IFNγ response), result in words” value (T cell clone BDC-2.5 [3]) was “strongly stimulated”. For the same substance, the “Stimulation of T cell clone BDC-2.5 (IFNγ response), result in words” value (T cell clone BDC-2.5 [3]; listed as pS3) was “maximally”, the “Activation of BDC-2.5 hybridoma (IL-2 production)” value (BDC-2.5 T cell hybridoma) was “maximally activated” and the “Activation of BDC-5.10.3 hybridoma (IL-2 production)” value [5] was “maximally activated”. For the same substance, the “Activation of BDC-10.1 hybridoma (IL-2 production)” value [6] was “maximally activated”, the “IA^g7 binding, result in words” value (soluble IA^g7) was “higher affinity” and the “Binding of IA^g7-mimotope to BDC-2.5 TCR” value (BDC-2.5 TCR) was “strong ligand”.
In the case of “SHLVEALYLVCGERG [insulin peptide, reference compound]”, the “Response of insulin-reactive T cell clone PD-12.4.4 (IFNγ), result in words” value (T cell clone PD-12.4.4) is reported as “responded”.
“TCR of the T cell clone BDC-2.5 (on the T cell clone or on a hybridoma bearing this TCR)” showed a percentage of maximal IFN-γ response at 100 mg/ml β-membrane (% of maximal IFN-γ response) [4] of 15 and a potency in activating the BDC clones, relative to the pS3 mimotope (fold less potent than pS3) [4] of 1000.
For “HRPIWARMD [peptide mimotope of Yoshida et al 2002]”, the “Mimotope activation of BDC-2.5” value (T cell clone BDC-2.5 [7]) is listed as “highly stimulatory; also recorded: activate”.

From patent US20120128646A1, “METHODS AND COMPOSITIONS FOR THE TREATMENT OF AUTOIMMUNE DISEASE” (priority 2009, published 2012)
